In patent US7638509B2, “Diene compounds and formulations” (priority 2003, dated 2009):
“Also recorded” adds a separate entry of the source.

Legend:
wild-type AR [1] = molecular target: T1, wild-type AR (Homo sapiens, UniProt P10275); experiment: Anti-DHT activity on AR transcription, MMTV-Luc reporter in PC-3 cells transfected with AR; assay type: cell-based; design: expressed in transfected cells; host or cells: PC-3; settings: for suppression of DHT-induced AR transactivation (in words): PC-3, 1 nM DHT, compound at 0.01, 0.1 or 1 μM; for antagonistic effects on DHT-enhanced AR transactivation (in words): compounds related to ADEK, cell line not given
T1 sequence (P10275 1-920): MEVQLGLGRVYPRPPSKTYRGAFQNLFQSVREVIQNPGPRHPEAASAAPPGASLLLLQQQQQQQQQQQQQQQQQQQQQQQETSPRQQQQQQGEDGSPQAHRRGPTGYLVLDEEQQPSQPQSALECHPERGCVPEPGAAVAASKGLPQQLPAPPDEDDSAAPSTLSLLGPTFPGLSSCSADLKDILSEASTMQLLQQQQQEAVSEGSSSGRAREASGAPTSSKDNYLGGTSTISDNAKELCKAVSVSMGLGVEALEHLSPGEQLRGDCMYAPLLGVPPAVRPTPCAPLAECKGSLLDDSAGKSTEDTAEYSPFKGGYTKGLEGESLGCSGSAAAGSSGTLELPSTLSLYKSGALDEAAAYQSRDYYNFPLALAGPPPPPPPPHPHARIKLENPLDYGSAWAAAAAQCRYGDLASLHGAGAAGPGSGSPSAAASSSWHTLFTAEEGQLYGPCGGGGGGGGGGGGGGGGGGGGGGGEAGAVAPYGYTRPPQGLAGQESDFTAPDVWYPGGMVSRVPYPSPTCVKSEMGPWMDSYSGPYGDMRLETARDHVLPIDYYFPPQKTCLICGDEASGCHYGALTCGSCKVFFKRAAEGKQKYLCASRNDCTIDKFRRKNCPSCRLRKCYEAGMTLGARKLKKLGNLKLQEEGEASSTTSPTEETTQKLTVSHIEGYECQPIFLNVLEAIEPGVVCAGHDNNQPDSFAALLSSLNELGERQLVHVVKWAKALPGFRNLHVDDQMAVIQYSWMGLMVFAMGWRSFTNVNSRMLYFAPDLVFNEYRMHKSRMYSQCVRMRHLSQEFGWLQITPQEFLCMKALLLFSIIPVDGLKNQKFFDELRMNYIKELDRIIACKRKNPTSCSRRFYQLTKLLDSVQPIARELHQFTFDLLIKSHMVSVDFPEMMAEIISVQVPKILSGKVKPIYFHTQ
Experimental: (§1) Cell Culture, Transfection, and Reporter Gene Assay. The human prostate cancer cell lines, LNCaP, PC-3, and DU145, and non-prostate cancer cell line COS-1 were maintained in RPMI or Dulbecco's modified Eagle's medium (DMEM) (Life Technologies) supplemented with 10% fetal bovine serum (FBS). Transfections and luciferase (Luc) assays were performed as previously described (Miyamoto, H., Yeh, S., Wilding, G. & Chang, C. (1998) Proc. Natl. Acad. Sci. USA 95, 7379-7384; Miyamoto, H., Rahman, M., Takatera, H., Kang, H.-Y., Yeh, S., Chang, H.-C., Nishimura, K., Fujimoto, N. & Chang, C. (2002) J. Biol. Chem. 277, 4609-4617). Briefly, cells seeded to reach a density of 50-60% confluence in 12 well tissue culture plates were transfected with 1.5 μg of DNA according to “SuperFect transfection” instructions (Qiagen). After 2-3 h incubation, cells were treated with medium supplemented with charcoal-stripped FBS containing either ethanol or ligands for 24 h. The cells were then harvested and whole cell extracts were used for Luc assay. The Luc activity was determined using a Dual-Luciferase Reporter Assay System (Promega) and luminometer.
(§2) To accomplish these studies, PC-3 cells were transfected with the wild-type AR expression plasmid pSG5-AR and MMTV-Luc. […] The Luc activity was measured relative to that of ethanol treatment (set as 1-fold). Values from the mean±SD of at least three determinations were used. PC-3 cells were transfected with the pSG5-AR and MMTV-Luc. […] Values from the mean±SD of at least three determinations were obtained.

PSA = PSA expression in LNCaP cells, Western blot; assay type: cell-based, human; settings: 48 h
Experimental: Western Blot. […] An antibody for -actin (Santa Cruz Biotechnology) was used as the internal control. Blots were quantitated by Collage software (Fotodyne).
The 33-kDa protein was quantitated. β-Actin expression was used as an internal control. […] The mean±SD of three separate experiments was determined. […] Total cell number was counted by hemocytometer. The mean of at least three determinations was determined.

LNCaP cells = experiment: LNCaP cell growth, cell count by hemocytometer; assay type: cell-based, human; settings: 1 nM DHT; 1 μM compound in presence of DHT
Experimental: The mean±SD of three separate experiments was determined. […] Total cell number was counted by hemocytometer. The mean of at least three determinations was determined.

wild-type AR [2] = molecular target: T1, wild-type AR; experiment: AR transcriptional activity (androgenic activity), MMTV-Luc reporter in PC-3 cells transfected with wild-type AR; assay type: cell-based; design: expressed in transfected cells; host or cells: PC-3; settings: PC-3, wild-type AR plasmid + MMTV-Luc, compound at 1000 nM, 24 h
Experimental: as §1
Anti-DHT Effect of DHEA Derivatives with Low Androgenic Activity on AR Transcription. Test compounds as antiandrogenic compounds, were characterized by analysis of their ability to induce AR transcriptional activity in the AR-negative PC-3 cell line. The Luc activity was determined in the cell extracts with transient transfection of wild-type AR plasmid and androgen response element-reporter plasmid (mouse mammary tumor virus (MMTV)-Luc). After transfection, the cells were treated with various compounds at 0.1-1,000 nM.
as §2

## C[C@]12C=C[C@H](O)CC1=CC[C@@H]1[C@@H]2CC[C@@]2(C)[C@H]1CCC21OCCO1
other
  melting point: 138 to 140 °C

## C[C@]12CC[C@H]3[C@@H]([C@H](O)CC4C[C@@H](O)CC[C@@]43C)[C@@H]1CC[C@@H]2O (stereo partly drawn) [3β,7α,17β-trihydroxyandrostane]
wild-type AR [1]
  suppression of DHT-induced AR transactivation (in words): little or no capacity

## C[C@]12CC[C@H]3[C@@H]([C@@H](O)C=C4C[C@@H](O)CC[C@@]43C)[C@@H]1CC[C@@H]2O [3β,7β,17β-trihydroxyandrost-5-ene]
wild-type AR [1]
  suppression of DHT-induced AR transactivation (in words): little or no capacity

## COC(=O)[C@H]1CC[C@@]2(C)C(=CC(=O)[C@@H]3[C@@H]2CC[C@]2(C)C(=O)[C@H](C(=O)OC)C[C@@H]32)C1 [3β,16α-bis-carbomethoxyandrost-5-ene-7,17-dione]
wild-type AR [1]
  suppression of DHT-induced AR transactivation (in words): less effective

## C[C@]12CC[C@H]3[C@@H](CCC4=C[C@@H](O)CC[C@@]43C)[C@@H]1CC[C@@H]2O [3β,17β-dihydroxyandrost-4-ene]
wild-type AR [1]
  suppression of DHT-induced AR transactivation (in words): less effective

## CC(=O)O[C@H]1C=C[C@@]2(C)C(=CC[C@H]3[C@@H]4CC[C@H](O)[C@@]4(C)CC[C@@H]32)C1 [3β-acetoxy-17β-hydroxyandrost-1,5-diene]
wild-type AR [1]
  suppression of DHT-induced AR transactivation (in words): less effective
  antagonistic effects on DHT-enhanced AR transactivation (in words): did not show significant antagonistic effects

## CC12CCC3(CC1=CC(O)C1C2CCC2(C)C1CCC21OCCO1)OCCO3 (stereo not drawn) [7α-hydroxyandrost-5-ene-3,17-bis ethylene ketal]
wild-type AR [1]
  suppression of DHT-induced AR transactivation (in words): less effective; also recorded: little or no capacity

## C[C@]12CC[C@H]3[C@@H]([C@@H](O)C=C4CC5(CC[C@@]43C)OCCO5)[C@@H]1CC[C@@H]2O [7β,17β-dihydroxyandrost-5-ene-3-ethylene ketal]
wild-type AR [1]
  suppression of DHT-induced AR transactivation (in words): less effective

## C[C@]12CC[C@H](O)C[C@@H]1CC[C@@H]1[C@@H]2CC[C@]2(C)C(=O)[C@H](Br)C[C@@H]12 [16α-bromoepiandrosterone]
wild-type AR [1]
  suppression of DHT-induced AR transactivation (in words): little or no capacity

## CC(=O)O[C@H]1CC[C@H]2[C@@H]3CC(=O)C4=CC(=O)CC[C@]4(C)[C@H]3CC[C@]12C [17β-acetoxyandrost-4-ene-3,6-dione]
wild-type AR [1]
  suppression of DHT-induced AR transactivation (in words): little or no capacity

## CCC(=O)O[C@H]1CC[C@H]2[C@@H]3C(=O)C=C4CC5(CC[C@]4(C)[C@H]3CC[C@]12C)OCCO5 [17β-propionony-7-oxoandrost-5-en-3-ethylene ketal]
wild-type AR [1]
  suppression of DHT-induced AR transactivation (in words): little or no capacity

## C[C@]12CCC(=O)C[C@@H]1CC[C@@H]1[C@@H]2CC[C@]2(C)[C@@H](O)CC[C@@H]12 [DHT, dihydrotestosterone, reference compound]
PSA; 1 nM DHT or 1 μM HF, casodex, ADEK in absence of DHT
  endogenous PSA expression over mock treatment: 4.3 fold
LNCaP cells
  effect on LNCaP cell growth, DHT alone or compound with DHT (in words): significantly increased cell growth

## C[C@]12CC[C@H]3[C@@H]([C@H](O)C=C4C[C@@H](O)CC[C@@]43C)[C@@H]1CC[C@@H]2O [No. 5, 3β,7α,17β-trihydroxyandrost-5-ene]
wild-type AR [2]
  induction on AR transcription as compared to mock treatment: marginal induction
wild-type AR [1]
  suppression of DHT-induced AR transactivation (in words): modest suppression

## CC(=O)O[C@H]1C=C[C@@]2(C)C(=CC[C@@H]3[C@@H]2CC[C@]2(C)C(=O)CC[C@@H]32)C1 [No. 14, 3β-acetoxyandrost-1,5-diene-17-one]
wild-type AR [2]
  induction on AR transcription as compared to mock treatment: marginal induction
wild-type AR [1]
  suppression of DHT-induced AR transactivation (in words): modest suppression
  antagonistic effects on DHT-enhanced AR transactivation (in words): did not show significant antagonistic effects

## C[C@]12C=C[C@H](O)CC1=CC[C@@H]1[C@@H]2CC[C@]2(C)C(=O)CC[C@@H]12 [No. 16, 3β-hydroxyandrost-1,5-diene-17-one]
wild-type AR [2]
  induction on AR transcription as compared to mock treatment: marginal induction
wild-type AR [1]
  suppression of DHT-induced AR transactivation (in words): modest suppression
  antagonistic effects on DHT-enhanced AR transactivation (in words): did not show significant antagonistic effects

## C[C@]12C=CC(=O)C=C1CC[C@@H]1[C@@H]2CC[C@]2(C)C(=O)CC[C@@H]12 [androst-1,4-diene-3,17-dione]
wild-type AR [1]
  suppression of DHT-induced AR transactivation (in words): less effective
  antagonistic effects on DHT-enhanced AR transactivation (in words): did not show significant antagonistic effects

## CC(O)(CS(=O)(=O)c1ccc(F)cc1)C(=O)Nc1ccc(C#N)c(C(F)(F)F)c1 (stereo not shown) [casodex, bicalutamide]
PSA; 1 μM compound + 1 nM DHT
  DHT-induced PSA expression decreased to (DHT = 100%): 58%
